Data as given in patent publication US9707234B2, “Spirocyclic hetercycle compounds useful as HIV integrase inhibitors” (MERCK SHARP & DOHME CORP., priority 2013, dated 2017).
Read-outs that look alike come from different tables or passages of the source.

Tested on: HIV-1 (H9IIIB or NL4-3 virus) replication in MT4-GFP cells
Assay: microbe, parasite or virus in culture
Type: cell-based
Details: inhibition of reproductive ratio R0, 48-72 h post-infection
[1] = MT4-GFP cells infected with HIV-1, 100% normal human serum, read-out: ViKinG IP (nM) with 100% NHS
[2] = Human immunodeficiency virus 1, NL43, MT4-GFP cells infected with HIV-1, 10% normal human serum, read-out: ViKinG IP (nM) with 10% NHS
[3] = Human immunodeficiency virus 1, NL43, MT4-GFP cells infected with HIV-1, 100% normal human serum, read-out: ViKinG IP (nM) with 100% NHS
[4] = Human immunodeficiency virus 1, NL43, MT4-GFP cells infected with HIV-1, serum free conditions (0% NHS), read-out: ViKinG IP (nM) with 0% NHS
[5] = MT4-GFP cells infected with HIV-1, serum free conditions (0% NHS), read-out: ViKinG IP (nM) with 0% NHS
[6] = MT4-GFP cells infected with HIV-1, 10% normal human serum, read-out: ViKinG IP (nM) with 10% NHS

Structure (SMILES)	IC50 [1] [nM]	IC50 [4] [nM]	IC50 [5] [nM]	also measured
CN1C(=O)c2c(O)c(=O)c(C(=O)NCc3ccc(F)c(Cl)c3F)cn2N(C)C12CCOC2 (single isomer, unassigned) [Compound 118]	101			
CCN1C(=O)c2c(O)c(=O)c(C(=O)NCc3ccc(F)cc3F)cn2N(C)C12CCOC2 (single isomer, unassigned) [Compound 119]		1.2		IC50 [2]: 11 nM; IC50 [3]: 163 nM
CCN1C(=O)c2c(O)c(=O)c(C(=O)NCc3ccc(F)cc3F)cn2N(C)C12CCOC2 (single isomer, unassigned) [Compound 120]	266		2.1	
COCCN1C(=O)c2c(O)c(=O)c(C(=O)NCc3ccc(F)cc3F)cn2N(C)C12CCOC2 (single isomer, unassigned) [Compound 121]	575	1.8		IC50 [2]: 39 nM
COCCN1C(=O)c2c(O)c(=O)c(C(=O)NCc3ccc(F)cc3F)cn2N(C)C12CCOC2 (single isomer, unassigned) [Compound 122]	1990		2.4	
COCCCN1C(=O)c2c(O)c(=O)c(C(=O)NCc3ccc(F)cc3F)cn2N(C)C12CCOC2 (single isomer, unassigned) [Compound 123]	117	1.2		IC50 [6]: 9 nM
COCCCN1C(=O)c2c(O)c(=O)c(C(=O)NCc3ccc(F)cc3F)cn2N(C)C12CCOC2 (single isomer, unassigned) [Compound 124]	309		1.8	IC50 [6]: 22 nM
CCOCCN1C(=O)c2c(O)c(=O)c(C(=O)NCc3ccc(F)cc3F)cn2N(C)C12CCOC2 (single isomer, unassigned) [Compound 125]		0.8		IC50 [3]: 257 nM
CCOCCN1C(=O)c2c(O)c(=O)c(C(=O)NCc3ccc(F)cc3F)cn2N(C)C12CCOC2 (single isomer, unassigned) [Compound 126]	455		1.3	
CN1C(=O)c2c(O)c(=O)c(C(=O)NCc3cccc(Cl)c3F)cn2N(C)C12COCC2(C)C (single isomer, unassigned) [Compound 127]		1		IC50 [3]: 134 nM
CN1C(=O)c2c(O)c(=O)c(C(=O)NCc3cccc(Cl)c3F)cn2N(C)C12COCC2(C)C (single isomer, unassigned) [Compound 128]	131		0.7	
CN1C(=O)c2c(O)c(=O)c(C(=O)NCc3ccc(F)cc3F)cn2N(C)C12COCC2(C)C (single isomer, unassigned) [Compound 129]	73		0.6	
CN1C(=O)c2c(O)c(=O)c(C(=O)NCc3ccc(F)cc3F)cn2N(C)C12COCC2(C)C (single isomer, unassigned) [Compound 130]	257		2.3	
CC1OCCC12N(C)C(=O)c1c(O)c(=O)c(C(=O)NCc3ccc(F)cc3F)cn1N2C (single isomer, unassigned) [Compound 131]	114	0.8		
CC1OCCC12N(C)C(=O)c1c(O)c(=O)c(C(=O)NCc3ccc(F)cc3F)cn1N2C (single isomer, unassigned) [Compound 132]	77			
CC1OCCC12N(C)C(=O)c1c(O)c(=O)c(C(=O)NCc3ccc(F)cc3F)cn1N2C (single isomer, unassigned) [Compound 133]	55			
CC1OCCC12N(C)C(=O)c1c(O)c(=O)c(C(=O)NCc3ccc(F)cc3F)cn1N2C (single isomer, unassigned) [Compound 134]	65		0.9	
CC1OCCC12N(C)C(=O)c1c(O)c(=O)c(C(=O)NCc3cccc(Cl)c3F)cn1N2C (single isomer, unassigned) [Compound 135]	486	0.9		
CC1OCCC12N(C)C(=O)c1c(O)c(=O)c(C(=O)NCc3cccc(Cl)c3F)cn1N2C (single isomer, unassigned) [Compound 136]	83			
CC1OCCC12N(C)C(=O)c1c(O)c(=O)c(C(=O)NCc3cccc(Cl)c3F)cn1N2C (single isomer, unassigned) [Compound 137]	64		0.7	
CC1OCCC12N(C)C(=O)c1c(O)c(=O)c(C(=O)NCc3cccc(Cl)c3F)cn1N2C (single isomer, unassigned) [Compound 138]	134		0.6	
CCOC(=O)N1CCC2(C1)N(CC)C(=O)c1c(O)c(=O)c(C(=O)NCc3ccc(F)cc3F)cn1N2C (single isomer, unassigned) [Compound 139]	247	1.5		
CCOC(=O)N1CCC2(C1)N(CC)C(=O)c1c(O)c(=O)c(C(=O)NCc3ccc(F)cc3F)cn1N2C (single isomer, unassigned) [Compound 140]	48		1.7	
CCN1n2cc(C(=O)NCc3ccc(F)cc3F)c(=O)c(O)c2C(=O)N(C)C12CCOC2 (single isomer, unassigned) [Compound 149]	144	0.7		

Structure (SMILES)	IC50 [1] [nM]	IC50 [4] [nM]	IC50 [5] [nM]	also measured
CCN1n2cc(C(=O)NCc3ccc(F)cc3F)c(=O)c(O)c2C(=O)N(C)C12CCOC2 (single isomer, unassigned) [Compound 150]	71		0.6	
CN1C(=O)c2c(O)c(=O)c(C(=O)NCc3ccc(F)cc3F)cn2N(CC2CC2)C12CCOC2 (single isomer, unassigned) [Compound 151]		0.7		IC50 [3]: 240 nM
CN1C(=O)c2c(O)c(=O)c(C(=O)NCc3ccc(F)cc3F)cn2N(CC2CC2)C12CCOC2 (single isomer, unassigned) [Compound 152]	174		0.7	
COCN1n2cc(C(=O)NCc3ccc(F)cc3F)c(=O)c(O)c2C(=O)N(C)C12CCOC2 (single isomer, unassigned) [Compound 153]	275	1.3		
COCN1n2cc(C(=O)NCc3ccc(F)cc3F)c(=O)c(O)c2C(=O)N(C)C12CCOC2 (single isomer, unassigned) [Compound 154]	37		0.7	
COCCN1n2cc(C(=O)NCc3ccc(F)cc3F)c(=O)c(O)c2C(=O)N(C)C12CCOC2 (single isomer, unassigned) [Compound 155]	37			
COCCN1n2cc(C(=O)NCc3ccc(F)cc3F)c(=O)c(O)c2C(=O)N(C)C12CCOC2 (single isomer, unassigned) [Compound 156]	106		1.2	
COCCCN1n2cc(C(=O)NCc3ccc(F)cc3F)c(=O)c(O)c2C(=O)N(C)C12CCOC2 (single isomer, unassigned) [Compound 157]			2.5	IC50 [3]: 111 nM
COCCCN1n2cc(C(=O)NCc3ccc(F)cc3F)c(=O)c(O)c2C(=O)N(C)C12CCOC2 (single isomer, unassigned) [Compound 158]	168		1	
CCOP(=O)(CCN1n2cc(C(=O)NCc3ccc(F)cc3F)c(=O)c(O)c2C(=O)N(C)C12CCOC2)OCC (single isomer, unassigned) [Compound 159]				IC50 [3]: 71 nM
CCOP(=O)(CCN1n2cc(C(=O)NCc3ccc(F)cc3F)c(=O)c(O)c2C(=O)N(C)C12CCOC2)OCC (single isomer, unassigned) [Compound 160]	46			
CN1C(=O)c2c(O)c(=O)c(C(=O)NCc3ccc(F)cc3F)cn2N(Cc2ccccc2)C12CCOC2 (single isomer, unassigned) [Compound 162]	72			
CN1C(=O)c2c(O)c(=O)c(C(=O)NCc3ccc(F)cc3F)cn2N(Cc2ccccc2)C12CCOC2 (single isomer, unassigned) [Compound 163]	35			
CN1C(=O)c2c(O)c(=O)c(C(=O)NCc3ccc(F)cc3F)cn2N(CCCC(F)(F)F)C12CCOC2 (single isomer, unassigned) [Compound 164]				IC50 [3]: 178 nM
CN1C(=O)c2c(O)c(=O)c(C(=O)NCc3ccc(F)cc3F)cn2N(CCCC(F)(F)F)C12CCOC2 (single isomer, unassigned) [Compound 165]	146			
CN1C(=O)c2c(O)c(=O)c(C(=O)NCc3ccc(F)cc3F)cn2N(C)C12CCNC2 (single isomer, unassigned) [Compound 169]	512	4.4		
CN1C(=O)c2c(O)c(=O)c(C(=O)NCc3ccc(F)cc3F)cn2N(C)C12CCNC2 (single isomer, unassigned) [Compound 170]	66		5	
CCN1C(=O)c2c(O)c(=O)c(C(=O)NCc3ccc(F)cc3F)cn2N(C)C12CCNC2 (single isomer, unassigned) [Compound 171]		1.8		IC50 [3]: 88 nM
CCN1C(=O)c2c(O)c(=O)c(C(=O)NCc3ccc(F)cc3F)cn2N(C)C12CCNC2 (single isomer, unassigned) [Compound 172]	61		1.6	
CCOC(=O)N1CCC2(CC1)N(CC)C(=O)c1c(O)c(=O)c(-c3nnc(Cc4ccc(F)cc4)s3)cn1N2C [Compound 5]		16.4		IC50 [2]: 22 nM; IC50 [3]: 250 nM
CCOC(=O)N1CCC2(CC1)N(CC)C(=O)c1c(O)c(=O)c(-c3nnc(Cc4ccc(F)cc4F)s3)cn1N2C [Compound 6]				IC50 [2]: 13 nM; IC50 [3]: 159 nM
CCCN1C(=O)c2c(O)c(=O)c(-c3nnc(Cc4ccc(F)cc4F)s3)cn2N(C)C12CCN(C(=O)OCC)CC2 [Compound 7]		29.9		IC50 [2]: 58 nM; IC50 [3]: 148 nM
CCN1C(=O)c2c(O)c(=O)c(-c3nnc(Cc4ccc(F)cc4F)s3)cn2N(C)C12CCN(C(=O)OC)CC2 [Compound 8]		5.5		IC50 [3]: 131 nM
